Reference: the supplement of paper PMC10307832

Legend:
Experiment in all cases: relative viability (nuclei count vs DMSO), 5 days (fraction); higher = more cells survive
[1] = compound: C[C@@H](N)c1ccc(C(=O)Nc2ccnc3[nH]ccc23)cc1 + C[C@]1(O)C[C@@H](c2nc(-c3ccc4ccc(-c5ccccc5)nc4c3)c3c(N)nccn32)C1 [Linsitinib] (partner 1 µM)
Procedure, shortened: (§1)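 For relative viability, nuclei counts in treated wells were divided by those in vehicle wells. Lung cancer cell lines had been pin-tool dosed in 1536-well plates the day after seeding and cultured for 5 days, then fixed and stained in one step (final 0.05% Triton X-100, 1% formaldehyde, 1 ug/ml Hoechst) and imaged at 4×. Doses were one drug alone or a fixed anchor-drug dose plus five library-drug doses (not always all listed) in √10 steps, and values are duplicate-plate medians.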

[2] = compound: C1CNCCC1C2=CC(=NN2)C3=CC=NC=C3 + O=C(CCCCCCC(=O)Nc1ccccc1)NO [Vorinostat] (partner 1 µM)
Procedure, shortened: as §1

[3] = compound: C1CNCCC1C2=CC(=NN2)C3=CC=NC=C3 + Cc1cc(Nc2cc(N3CCN(C)CC3)nc(Sc3ccc(NC(=O)C4CC4)cc3)n2)n[nH]1 [Tozasertib] (partner 0.1 µM)
Procedure, shortened: as §1

[4] = compound: O[C@H]1CC[C@H](Nc2ncc3nc(Nc4c(F)cc(F)cc4F)n([C@H]4CCOC4)c3n2)CC1 [Tanzisertib] + N=C(N)NC(=N)NCCc1ccccc1 [Phenformin] (partner 250 µM)
Procedure, shortened: as §1

Row | Cell Line | relative viability ([1]; first compound 0.04 µM) | relative viability ([1]; first compound 0.1265 µM) | relative viability ([1]; first compound 0.4 µM) | relative viability ([1]; first compound 1.265 µM) | relative viability ([1]; first compound 4 µM) | relative viability ([2]; first compound 0.08 µM) | relative viability ([2]; first compound 0.8 µM) | relative viability ([2]; first compound 2.53 µM) | relative viability ([2]; first compound 8 µM) | relative viability ([3]; first compound 0.08 µM) | relative viability ([3]; first compound 0.8 µM) | relative viability ([3]; first compound 2.53 µM) | relative viability ([3]; first compound 8 µM) | relative viability ([4]; first compound 0.08 µM) | relative viability ([4]; first compound 0.253 µM) | relative viability ([4]; first compound 0.8 µM) | relative viability ([4]; first compound 2.53 µM) | relative viability ([4]; first compound 8 µM)
1 | 201T | 1.14 | 1.02 | 1.07 | 1.11 | 1.16 | 0.954 | 0.955 | 1.02 | 0.949 | 0.944 | 0.944 | 0.893 | 0.951 | 0.454 | 0.501 | 0.477 | 0.459 | 0.386
2 | A549 | 0.674 | 0.666 | 0.726 | 0.775 | 0.619 | – | – | – | – | – | – | – | – | 0.236 | 0.153 | 0.183 | 0.309 | 0.168
3 | A-427 | 1.08 | 1.11 | 1.06 | – | 1.12 | 0.842 | 0.982 | 0.891 | 0.762 | 0.203 | 0.214 | 0.19 | 0.22 | 0.394 | 0.411 | 0.413 | 0.326 | 0.22
4 | ABC-1 | 0.894 | 0.81 | 0.998 | 0.911 | 0.683 | 1.2 | 1.01 | 1.1 | 1.14 | 0.145 | 0.17 | 0.201 | 0.176 | 0.242 | 0.251 | 0.226 | 0.211 | 0.218
5 | BEN | 0.981 | 0.86 | 0.991 | 1.02 | 0.636 | 0.489 | 0.611 | 0.635 | 0.57 | 0.575 | 0.514 | 0.45 | 0.513 | 0.254 | 0.235 | 0.275 | 0.266 | 0.255
6 | CAL-12T | 0.928 | 0.888 | 0.88 | 1.09 | 0.719 | 0.693 | 0.932 | 0.964 | 0.981 | 0.334 | 0.34 | 0.313 | 0.342 | 0.517 | 0.566 | 0.625 | 0.628 | 0.556
7 | COR-L23 | 0.968 | 0.925 | 0.874 | 0.744 | 0.442 | 0.455 | 0.56 | 0.631 | 0.447 | 0.222 | 0.201 | 0.229 | 0.172 | 0.479 | 0.489 | 0.432 | 0.483 | 0.475
8 | COR-L 105 | 0.917 | 1.02 | 0.857 | 0.845 | 0.436 | 0.805 | 0.916 | 1.07 | 0.964 | 0.348 | 0.311 | 0.348 | 0.349 | 0.467 | 0.465 | 0.449 | 0.473 | 0.327
9 | Calu-6 | 0.757 | 0.952 | 0.984 | 0.922 | 0.839 | – | – | – | – | – | – | – | – | – | – | – | – | –
10 | ChaGo-K-1 | – | – | – | – | – | 0.731 | 0.806 | 0.764 | 0.765 | 0.237 | 0.223 | 0.232 | 0.216 | 0.547 | 0.545 | 0.447 | 0.493 | 0.482
11 | EBC-1 | 1.07 | 0.873 | 0.961 | 1.05 | 0.86 | – | – | – | – | – | – | – | – | – | – | – | – | –
12 | EKVX | 1.12 | 1.13 | 1.2 | 1.19 | 1.01 | 0.78 | 0.82 | 0.861 | 0.737 | 0.396 | 0.303 | 0.491 | 0.401 | 0.227 | 0.244 | 0.253 | 0.227 | 0.205
13 | EMC-BAC-2 | 0.84 | 0.846 | 0.738 | 0.827 | 0.613 | – | 0.475 | 0.498 | 0.436 | 0.28 | 0.311 | 0.319 | 0.263 | 0.51 | 0.507 | 0.528 | 0.51 | 0.502
14 | EPLC-272H | 1.34 | 1.24 | 1.28 | – | 1.13 | 0.618 | 0.501 | 0.452 | 0.468 | 0.357 | 0.221 | 0.367 | 0.314 | 0.329 | 0.311 | 0.295 | 0.327 | 0.302
15 | H3255 | 0.997 | 1.04 | 1.26 | 0.957 | 0.947 | 0.95 | – | 0.995 | 0.937 | 0.709 | 0.795 | 0.806 | 0.606 | 0.413 | 0.371 | 0.387 | 0.349 | 0.231
16 | HARA | 1.09 | 1.06 | 1.15 | 0.996 | 0.521 | 0.669 | 0.62 | 0.527 | 0.481 | 0.12 | 0.0979 | 0.11 | 0.0912 | 0.541 | 0.401 | 0.451 | 0.41 | 0.333
17 | HCC-15 | 0.951 | 0.888 | 0.845 | – | 0.797 | 0.844 | 0.871 | 0.845 | 0.877 | 0.517 | 0.372 | 0.484 | 0.355 | 0.576 | 0.487 | 0.509 | 0.467 | 0.423
